Tested on in one data set: not listed separately
In words: Cytotoxicity against HEK293 cells assessed as inhibition of cell growth by MTT assay. Type of data set: toxicity, cell-based. The conditions noted are these: human. For orientation: Tetrazolium dyes change colour on reduction, which living cells bring about.
For orientation: IC50 means the concentration that gives 50% inhibition. `COc1cc(-c2nnc(SCC(=O)c3ccc(C)cc3)n2N2C(=O)c3ccccc3C2=O)cc(OC)c1OC`: the half-maximal inhibitory concentration (IC50) is over 100 µM.

With `COc1cc(Cc2nnc(SCC(=O)c3ccc(C)cc3)n2N)cc(OC)c1OC`, the half-inhibitory concentration (IC50) is over 100 µM.

For `COc1ccc(C(=O)CSc2nnc(OCc3cc(OC)c(OC)c(OC)c3)n2N)cc1`, the IC50 was over 100 µM.

Regarding `COc1ccc(C(=O)CSc2nnc(Cc3cc(OC)c(OC)c(OC)c3)n2N)cc1`, the IC50 was over 100 µM.

Turning to `COc1cc(COc2nnc(SCC(=O)c3ccc(C)cc3)n2N)cc(OC)c1OC`, the IC50 is over 100 µM.

A further data set has as its system HeLa. As to the kind of experiment: Antiproliferative activity against human HeLa cells assessed as inhibition of cell growth by MTT assay. It is filed as functional, cell-based.
Settings: not given
Take `COc1cc(-c2nnc(SCC(=O)c3ccc(C)cc3)n2N2C(=O)c3ccccc3C2=O)cc(OC)c1OC`: the half-maximal inhibitory concentration (IC50) stood at 16.2 µM.

For `COc1cc(Cc2nnc(SCC(=O)c3ccc(C)cc3)n2N)cc(OC)c1OC`, the IC50 came out at 9.02 µM.

Turning to `COc1ccc(C(=O)CSc2nnc(OCc3cc(OC)c(OC)c(OC)c3)n2N)cc1`, the IC50 was over 100 µM.

For the molecule `COc1ccc(C(=O)CSc2nnc(Cc3cc(OC)c(OC)c(OC)c3)n2N)cc1`, the IC50 is 11.8 µM.

For the molecule `COc1cc(COc2nnc(SCC(=O)c3ccc(C)cc3)n2N)cc(OC)c1OC`, the half-inhibitory concentration (IC50) worked out at 29.4 µM.

A further data set concerns HCT-116. In words: Antiproliferative activity against human HCT-116 cells assessed as inhibition of cell growth by MTT assay. Type of data set: functional, cell-based.
Settings: not given
Regarding `COc1cc(-c2nnc(SCC(=O)c3ccc(C)cc3)n2N2C(=O)c3ccccc3C2=O)cc(OC)c1OC`, the IC50 was over 100 µM.

For `COc1cc(Cc2nnc(SCC(=O)c3ccc(C)cc3)n2N)cc(OC)c1OC`, the IC50 is 1.46 µM.

`COc1ccc(C(=O)CSc2nnc(OCc3cc(OC)c(OC)c(OC)c3)n2N)cc1`: the IC50 was over 100 µM.

Take `COc1ccc(/C=C\c2cc(OC)c(OC)c(OC)c2)cc1O` [COMBRETASTATIN A4]: the IC50 amounted to 1.1 µM.

`COc1ccc(C(=O)CSc2nnc(Cc3cc(OC)c(OC)c(OC)c3)n2N)cc1`: the concentration for half-maximal inhibition (IC50) is 4 µM.

As for `COc1cc(COc2nnc(SCC(=O)c3ccc(C)cc3)n2N)cc(OC)c1OC`, the IC50 was 7.57 µM.

Another data set deals with Tubulin. In words: Inhibition of tubulin polymerization (unknown origin) measured every minute for 20 mins by fluorescence based assay. Type of data set: protein-complex assay, Homo sapiens.
Settings: not given
The molecule `COc1cc(Cc2nnc(SCC(=O)c3ccc(C)cc3)n2N)cc(OC)c1OC` yielded an IC50 of 12.7 µM.

The target in a further data set is Vascular endothelial growth factor receptor 2 (Homo sapiens, UniProt P35968). In words: Inhibition of VEGFR2 (unknown origin) by kinase-glo luminescent assay.
Vascular endothelial growth factor receptor 2, sequence (P35968 whole entry): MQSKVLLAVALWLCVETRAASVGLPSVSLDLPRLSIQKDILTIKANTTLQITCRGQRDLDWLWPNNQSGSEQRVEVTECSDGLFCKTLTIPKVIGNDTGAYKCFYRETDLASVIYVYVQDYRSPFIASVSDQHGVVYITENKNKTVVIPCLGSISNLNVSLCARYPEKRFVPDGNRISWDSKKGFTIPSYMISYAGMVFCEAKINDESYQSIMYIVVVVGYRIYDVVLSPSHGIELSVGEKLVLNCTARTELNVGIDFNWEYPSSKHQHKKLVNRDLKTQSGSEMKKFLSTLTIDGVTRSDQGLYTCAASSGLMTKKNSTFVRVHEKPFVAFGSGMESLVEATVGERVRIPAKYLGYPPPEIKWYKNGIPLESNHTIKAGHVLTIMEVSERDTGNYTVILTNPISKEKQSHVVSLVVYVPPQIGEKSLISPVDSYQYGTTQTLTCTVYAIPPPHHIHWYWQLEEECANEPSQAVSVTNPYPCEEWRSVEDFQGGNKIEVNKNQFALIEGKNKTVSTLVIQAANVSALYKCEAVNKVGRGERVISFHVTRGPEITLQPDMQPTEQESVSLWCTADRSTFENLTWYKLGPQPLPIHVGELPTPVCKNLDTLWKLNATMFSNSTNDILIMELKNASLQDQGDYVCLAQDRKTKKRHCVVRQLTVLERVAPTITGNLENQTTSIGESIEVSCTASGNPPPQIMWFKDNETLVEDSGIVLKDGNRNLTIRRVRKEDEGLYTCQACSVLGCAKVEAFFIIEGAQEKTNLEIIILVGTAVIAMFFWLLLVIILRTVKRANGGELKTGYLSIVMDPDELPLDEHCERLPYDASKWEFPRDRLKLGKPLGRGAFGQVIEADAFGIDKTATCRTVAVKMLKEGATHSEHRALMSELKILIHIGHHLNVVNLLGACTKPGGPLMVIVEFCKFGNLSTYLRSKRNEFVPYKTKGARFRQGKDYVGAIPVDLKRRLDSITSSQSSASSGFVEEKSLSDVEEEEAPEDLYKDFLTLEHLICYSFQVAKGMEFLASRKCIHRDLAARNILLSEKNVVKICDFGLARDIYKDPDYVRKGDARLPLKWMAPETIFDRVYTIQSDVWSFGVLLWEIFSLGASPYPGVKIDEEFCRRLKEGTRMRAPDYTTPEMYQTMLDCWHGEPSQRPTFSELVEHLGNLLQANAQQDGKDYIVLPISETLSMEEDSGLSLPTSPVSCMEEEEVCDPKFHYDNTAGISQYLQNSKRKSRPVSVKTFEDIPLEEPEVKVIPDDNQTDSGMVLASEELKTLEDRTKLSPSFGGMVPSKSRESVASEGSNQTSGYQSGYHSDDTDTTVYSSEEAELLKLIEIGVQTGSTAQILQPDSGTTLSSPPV
Settings: not given
`COc1ccc(/C=N/n2c(SCC(=O)c3ccc(Cl)cc3)nnc2-c2cc3ccccc3[nH]2)cc1` came in with an IC50 of 0.071 µM.

For another data set, the system named is HCT-116. In words: Induction of cell cycle arrest in human HCT-116 cells assessed as accumulation of cells at S phase at 0.75 uM incubated for 24 hrs by PI staining based flow cytometry analysis (reference value: 47.56 %).
Settings: not given
It is filed as functional. Background: In flow cytometry, cells or beads pass a laser one at a time.
On to `COc1cc(Cc2nnc(SCC(=O)c3ccc(C)cc3)n2N)cc(OC)c1OC`, for which the Activity was 36.97%.

The test system of the next data set is HCT-116. In words: Induction of cell cycle arrest in human HCT-116 cells assessed as accumulation of cells at G1/G0 phase at 1.5 uM incubated for 24 hrs by PI staining based flow cytometry analysis (reference value: 31.33 %).
Settings: not given
It is filed as functional.
Regarding `COc1cc(Cc2nnc(SCC(=O)c3ccc(C)cc3)n2N)cc(OC)c1OC`, the Activity was 33.76%.

The next data set has as its system HepG2. As to the kind of experiment: Antiproliferative activity against human HepG2 cells assessed as inhibition of cell growth by MTT assay.
Settings: not given
It is filed as functional, cell-based.
`CC(=O)CSc1nnc(-c2ccccn2)n1N1C(=O)c2ccccc2C1=O`: the IC50 was over 100 µM.

Consider `COc1cc(Cc2nnc(SCC(C)=O)n2N2C(=O)c3ccccc3C2=O)cc(OC)c1OC`, for which the IC50 is over 100 µM.

Consider `CC(=O)CSc1nnc(-c2cnccn2)n1N1C(=O)c2ccccc2C1=O`, for which the half-inhibitory concentration (IC50) was over 100 µM.

As to `O=C(CSc1nnc(-c2ccccn2)n1N1C(=O)c2ccccc2C1=O)C1CC1`, the IC50 is over 100 µM.

Regarding `COc1cc(Cc2nnc(SCC(=O)c3ccc(C)cc3)n2N)cc(OC)c1OC`, the IC50 was 3.65 µM.

Regarding `COc1ccc(C(=O)CSc2nnc(Cc3cc(OC)c(OC)c(OC)c3)n2N2C(=O)c3ccccc3C2=O)cc1`, the concentration for half-maximal inhibition (IC50) is 61.1 µM.

In the case of `COc1cc(COc2nnc(SCC(=O)c3ccc(C)cc3)n2N2C(=O)c3ccccc3C2=O)cc(OC)c1OC`, the half-inhibitory concentration (IC50) is 80.3 µM.

Regarding `O=C(CSc1nnc(-c2cnccn2)n1N1C(=O)c2ccccc2C1=O)C1CC1`, the IC50 is over 100 µM.

As for `COc1cc(Cc2nnc(SCC(=O)c3ccc(C)cc3)n2N2C(=O)c3ccccc3C2=O)cc(OC)c1OC`, the half-maximal inhibitory concentration (IC50) is over 100 µM.

On to `COc1cc(Cc2nnc(SCC(=O)C3CC3)n2N2C(=O)c3ccccc3C2=O)cc(OC)c1OC`, for which the IC50 was over 100 µM.

For the molecule `COc1cc(Cc2nnc(SCC(=O)c3ccc(Cl)cc3)n2N2C(=O)c3ccccc3C2=O)cc(OC)c1OC`, the IC50 was 94.8 µM.

For `COc1cc(COc2nnc(SCC(=O)c3ccc(Cl)cc3)n2N2C(=O)c3ccccc3C2=O)cc(OC)c1OC`, the half-maximal inhibitory concentration (IC50) was over 100 µM.

`O=C(CSc1nnc(-c2ccccn2)n1N1C(=O)c2ccccc2C1=O)c1ccc(Cl)cc1`: the 50% inhibitory concentration (IC50) worked out at 78.3 µM.

As for `Cc1ccc(C(=O)CSc2nnc(-c3ccccn3)n2N2C(=O)c3ccccc3C2=O)cc1`, the IC50 is 65.2 µM.

As for `O=C(CSc1nnc(-c2ccccn2)n1N1C(=O)c2ccccc2C1=O)c1ccccc1`, the IC50 was over 100 µM.

`COc1ccc(C(=O)CSc2nnc(OCc3cc(OC)c(OC)c(OC)c3)n2N)cc1`: the 50% inhibitory concentration (IC50) stood at 25.4 µM.

`COc1cc(Cc2nnc(SCC(=O)c3ccccc3)n2N2C(=O)c3ccccc3C2=O)cc(OC)c1OC`: the half-maximal inhibitory concentration (IC50) stood at 71.3 µM.

In the case of `O=C(CSc1nnc(-c2cnccn2)n1N1C(=O)c2ccccc2C1=O)c1ccc(C(F)(F)F)cc1`, the IC50 was over 100 µM.

As to `O=C(CSc1nnc(-c2cnccn2)n1N1C(=O)c2ccccc2C1=O)c1ccc(Cl)cc1`, the half-inhibitory concentration (IC50) is over 100 µM.

Consider `Cc1ccc(C(=O)CSc2nnc(-c3cnccn3)n2N2C(=O)c3ccccc3C2=O)cc1`, for which the IC50 amounted to 89.7 µM.

In the case of `COc1ccc(C(=O)CSc2nnc(-c3ccccn3)n2N2C(=O)c3ccccc3C2=O)cc1`, the 50% inhibitory concentration (IC50) came out at 90.3 µM.

On to `COc1ccc(C(=O)CSc2nnc(Cc3cc(OC)c(OC)c(OC)c3)n2N)cc1`, for which the 50% inhibitory concentration (IC50) came to 16.2 µM.

Turning to `COc1cc(COc2nnc(SCC(=O)c3ccc(C)cc3)n2N)cc(OC)c1OC`, the IC50 turned out to be 13.1 µM.

`O=C(CSc1nnc(-c2ccccn2)n1N1C(=O)c2ccccc2C1=O)c1ccc(C(F)(F)F)cc1`: the IC50 stood at 94.3 µM.

Consider `COc1cc(Cc2nnc(SCC(=O)c3ccc(C(F)(F)F)cc3)n2N2C(=O)c3ccccc3C2=O)cc(OC)c1OC`, for which the IC50 amounted to 35.3 µM.

The test system of a further data set is HCT-116. As to the kind of experiment: Induction of cell cycle arrest in human HCT-116 cells assessed as accumulation of cells at S phase at 3 uM incubated for 24 hrs by PI staining based flow cytometry analysis (reference value: 47.56 %). Type of data set: functional.
Settings: not given
As to `COc1cc(Cc2nnc(SCC(=O)c3ccc(C)cc3)n2N)cc(OC)c1OC`, the Activity came out at 40.12%.

A further data set deals with HT-29. As to the kind of experiment: Antiproliferative activity against human HT-29 cells assessed as inhibition of cell growth by MTT assay.
Settings: not given
It is filed as functional, cell-based.
For `COc1cc(-c2nnc(SCC(=O)c3ccc(C)cc3)n2N2C(=O)c3ccccc3C2=O)cc(OC)c1OC`, the IC50 stood at 76.4 µM.

As to `COc1cc(Cc2nnc(SCC(=O)c3ccc(C)cc3)n2N)cc(OC)c1OC`, the half-maximal inhibitory concentration (IC50) turned out to be 0.62 µM.

As for `COc1ccc(C(=O)CSc2nnc(OCc3cc(OC)c(OC)c(OC)c3)n2N)cc1`, the IC50 came to 67.6 µM.

`COc1ccc(C(=O)CSc2nnc(Cc3cc(OC)c(OC)c(OC)c3)n2N)cc1`: the 50% inhibitory concentration (IC50) was 10.8 µM.

On to `COc1cc(COc2nnc(SCC(=O)c3ccc(C)cc3)n2N)cc(OC)c1OC`, for which the 50% inhibitory concentration (IC50) is 12.2 µM.

Another data set has as its system HCT-116. In words: Induction of cell cycle arrest in human HCT-116 cells assessed as accumulation of cells at G2/M phase at 3 uM incubated for 24 hrs by PI staining based flow cytometry analysis (reference value: 21.10 %). Type of data set: functional.
Settings: not given
As for `COc1cc(Cc2nnc(SCC(=O)c3ccc(C)cc3)n2N)cc(OC)c1OC`, the Activity stood at 48.75%.

A further data set deals with HCT-116. As to the kind of experiment: Induction of cell cycle arrest in human HCT-116 cells assessed as accumulation of cells at G2/M phase at 0.75 uM incubated for 24 hrs by PI staining based flow cytometry analysis (reference value: 21.10 %). Type of data set: functional.
Settings: not given
Consider `COc1cc(Cc2nnc(SCC(=O)c3ccc(C)cc3)n2N)cc(OC)c1OC`, for which the Activity is recorded as 33.73%.

The target of the next data set is Tubulin (Homo sapiens) (UniProt P68371+Q9H4B7+P0DPH7+P68366+Q13509+Q71U36+P04350+Q3ZCM7+P07437+P68363+Q9BQE3+Q6PEY2+Q13885+Q9BVA1+Q9BUF5). As to the kind of experiment: Inhibition of tubulin polymerization (unknown origin) at 10 uM measured every minute for 20 mins by fluorescence based assay relative to control. Type of data set: protein-complex assay.
Settings: not given
In general, inhibition refers to the change of the read-out against control, counted positive when it falls. A higher inhibition goes with a response far below the control. For `COc1cc(-c2nnc(SCC(=O)c3ccc(C)cc3)n2N2C(=O)c3ccccc3C2=O)cc(OC)c1OC`, the inhibition came out at 19%.

`COc1cc(Cc2nnc(SCC(=O)c3ccc(C)cc3)n2N)cc(OC)c1OC` gave an inhibition of 36%.

The next data set has as its system HCT-116. As to the kind of experiment: Induction of cell cycle arrest in human HCT-116 cells assessed as accumulation of cells at S phase at 1.5 uM incubated for 24 hrs by PI staining based flow cytometry analysis (reference value: 47.56 %). It is filed as functional.
Settings: not given
Turning to `COc1cc(Cc2nnc(SCC(=O)c3ccc(C)cc3)n2N)cc(OC)c1OC`, the Activity was found to be 30.21%.

A further data set deals with HCT-116. In words: Induction of cell cycle arrest in human HCT-116 cells assessed as accumulation of cells at G1/G0 phase at 3 uM incubated for 24 hrs by PI staining based flow cytometry analysis (reference value: 31.33 %). It is filed as functional.
Settings: not given
For the molecule `COc1cc(Cc2nnc(SCC(=O)c3ccc(C)cc3)n2N)cc(OC)c1OC`, the Activity came out at 11.13%.

The subject of a further data set is HCT-116. In words: Induction of cell cycle arrest in human HCT-116 cells assessed as accumulation of cells at G2/M phase at 1.5 uM incubated for 24 hrs by PI staining based flow cytometry analysis (reference value: 21.10 %). It is filed as functional.
Settings: not given
On to `COc1cc(Cc2nnc(SCC(=O)c3ccc(C)cc3)n2N)cc(OC)c1OC`, for which the Activity stood at 36.03%.

The next data set relates to HCT-116. As to the kind of experiment: Induction of cell cycle arrest in human HCT-116 cells assessed as accumulation of cells at G1/G0 phase at 0.75 uM incubated for 24 hrs by PI staining based flow cytometry analysis (reference value: 31.33 %). Type of data set: functional.
Settings: not given
As to `COc1cc(Cc2nnc(SCC(=O)c3ccc(C)cc3)n2N)cc(OC)c1OC`, the Activity came out at 29.3%.
